Measured values from paper PMC6521598, “Identification of GLPG/ABBV-2737, a Novel Class of Corrector, Which Exerts Functional Synergy With Other CFTR Modulators” (Frontiers in Pharmacology, 2019).

What was measured:
Format in all cases: cell-based
[1] = molecular target: T1, V232D CFTR (Homo sapiens, UniProt P13569, V232D); experiment: YFP halide assay (YHA), HEK293, V232D; details: 24 h; 50 μM forskolin + 0.5 μM potentiator
T1 construct: expressed in transfected cells; host or cells: HEK293
Procedure: (§1) HEK293 cells were transfected with 10–80 ng of plasmid encoding F508del, E92K, P67L, V232D, F508del/G550E, F508del/I539T or wild type CFTR and 20 ng of plasmid encoding YFP (H148Q/I152L/F47L) using jetPEI (Polyplus transfection). Directly after transfection, cells were seeded in black 96-well plates coated with poly-D-lysine at a density of 70,000 cells per well. The next day, cells were treated with corrector(s) for 24 h. After this incubation period, cells were washed twice with DPBS with Ca^2+ and Mg^2+. Subsequently, cells were treated with 10 μM forskolin and the desired concentration of potentiator in a volume of 40 μl and incubated at room temperature for 10 min, a time point optimized in previous experiments resulting in a good window (positive control/negative control > 2) and signal to background ratio. YFP fluorescence was measured using an EnVision plate reader (PerkinElmer). […] The excitation wavelength was 485 nm and the emission wavelength 530 nm. The capacity of potentiators to increase CFTR channel function was expressed as 1-(fluorescence 7 s after NaI addition (F)/fluorescence before NaI addition (F0)). […]
(§2) FIGURE 7 YHA assay using CFTR mutant overexpression in HEK293 cells. […] After washing, cells were triggered with forskolin (50 μM for F508del, E92K, V232D and F508del/I539T, 10 μM for P67L or 1 μM for F508del/G550E) and 0.5 μM potentiator and YFP fluorescence was measured. Efficacy was determined using 10 μM GLPG2222 as positive control and DMSO as negative control in the assay. […] All values containing these digits are best readings, e.g. GLPG2222 P67L EC50 206 (± 98), GLPG2222 E92K EC50 503 (± 109), VX809 F508del EC50 286 (± 35), VX809 P67L % of reference 88 (± 3), GLPG2737 F508del % of reference 138 (± 9). / GLPG2737, EC50 for P67L and E92K is printed as NA; left out because no value is given. / VX809, E92K EC50 error: 17, a digit may be missing.

[2] = molecular target: T2, A455E CFTR (Homo sapiens, UniProt P13569, A455E); experiment: YFP halide assay (YHA), HEK293, A455E; details: 24 h; forskolin + 0.5 μM potentiator
T2 construct: expressed in transfected cells; host or cells: HEK293
T2 sequence (P13569 whole entry A455E): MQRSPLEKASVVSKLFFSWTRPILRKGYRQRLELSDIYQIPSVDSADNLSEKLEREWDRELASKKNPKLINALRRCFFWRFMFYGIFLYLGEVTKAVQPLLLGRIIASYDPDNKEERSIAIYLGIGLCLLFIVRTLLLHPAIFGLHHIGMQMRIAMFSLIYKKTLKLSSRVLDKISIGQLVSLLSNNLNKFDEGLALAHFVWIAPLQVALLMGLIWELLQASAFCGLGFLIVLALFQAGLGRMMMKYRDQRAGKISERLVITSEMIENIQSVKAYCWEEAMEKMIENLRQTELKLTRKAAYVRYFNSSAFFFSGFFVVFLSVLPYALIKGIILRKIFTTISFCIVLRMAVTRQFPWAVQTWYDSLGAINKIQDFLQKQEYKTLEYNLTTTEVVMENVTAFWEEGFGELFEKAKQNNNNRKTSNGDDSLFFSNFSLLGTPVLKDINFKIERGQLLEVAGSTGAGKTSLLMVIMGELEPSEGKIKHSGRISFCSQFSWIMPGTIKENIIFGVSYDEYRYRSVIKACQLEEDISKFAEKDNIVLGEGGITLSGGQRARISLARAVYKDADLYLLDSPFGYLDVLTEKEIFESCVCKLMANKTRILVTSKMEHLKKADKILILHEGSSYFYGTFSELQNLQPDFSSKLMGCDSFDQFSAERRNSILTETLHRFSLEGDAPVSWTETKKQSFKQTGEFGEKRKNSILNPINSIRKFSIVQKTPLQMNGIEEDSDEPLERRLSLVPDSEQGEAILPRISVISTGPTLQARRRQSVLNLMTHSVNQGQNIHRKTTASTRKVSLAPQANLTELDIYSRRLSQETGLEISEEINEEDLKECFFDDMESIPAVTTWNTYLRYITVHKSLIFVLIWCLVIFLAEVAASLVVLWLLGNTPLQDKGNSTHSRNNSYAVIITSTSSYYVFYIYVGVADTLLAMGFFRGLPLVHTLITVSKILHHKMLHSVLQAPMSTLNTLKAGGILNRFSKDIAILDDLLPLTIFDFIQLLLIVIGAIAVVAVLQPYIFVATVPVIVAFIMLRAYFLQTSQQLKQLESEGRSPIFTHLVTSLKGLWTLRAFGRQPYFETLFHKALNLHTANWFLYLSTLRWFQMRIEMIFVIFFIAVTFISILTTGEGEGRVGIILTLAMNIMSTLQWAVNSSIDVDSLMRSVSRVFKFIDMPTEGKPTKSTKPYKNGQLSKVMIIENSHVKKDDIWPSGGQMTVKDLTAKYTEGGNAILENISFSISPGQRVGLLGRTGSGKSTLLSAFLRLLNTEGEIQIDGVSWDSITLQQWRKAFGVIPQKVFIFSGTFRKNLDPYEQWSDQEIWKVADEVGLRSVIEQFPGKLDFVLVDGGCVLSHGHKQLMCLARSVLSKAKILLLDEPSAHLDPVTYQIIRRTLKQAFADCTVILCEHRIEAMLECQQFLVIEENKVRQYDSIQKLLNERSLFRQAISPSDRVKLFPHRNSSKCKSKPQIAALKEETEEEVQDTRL

[3] = molecular target: F508del CFTR (Homo sapiens, UniProt P13569, DEL508-508); experiment: YFP halide assay (YHA), HEK293, F508del; set-up: University of North Carolina; host or cells: primary human bronchial epithelial cells, F508del/F508del donors
F508del CFTR, sequence (P13569 with tags, fused parts or gaps DEL508-508): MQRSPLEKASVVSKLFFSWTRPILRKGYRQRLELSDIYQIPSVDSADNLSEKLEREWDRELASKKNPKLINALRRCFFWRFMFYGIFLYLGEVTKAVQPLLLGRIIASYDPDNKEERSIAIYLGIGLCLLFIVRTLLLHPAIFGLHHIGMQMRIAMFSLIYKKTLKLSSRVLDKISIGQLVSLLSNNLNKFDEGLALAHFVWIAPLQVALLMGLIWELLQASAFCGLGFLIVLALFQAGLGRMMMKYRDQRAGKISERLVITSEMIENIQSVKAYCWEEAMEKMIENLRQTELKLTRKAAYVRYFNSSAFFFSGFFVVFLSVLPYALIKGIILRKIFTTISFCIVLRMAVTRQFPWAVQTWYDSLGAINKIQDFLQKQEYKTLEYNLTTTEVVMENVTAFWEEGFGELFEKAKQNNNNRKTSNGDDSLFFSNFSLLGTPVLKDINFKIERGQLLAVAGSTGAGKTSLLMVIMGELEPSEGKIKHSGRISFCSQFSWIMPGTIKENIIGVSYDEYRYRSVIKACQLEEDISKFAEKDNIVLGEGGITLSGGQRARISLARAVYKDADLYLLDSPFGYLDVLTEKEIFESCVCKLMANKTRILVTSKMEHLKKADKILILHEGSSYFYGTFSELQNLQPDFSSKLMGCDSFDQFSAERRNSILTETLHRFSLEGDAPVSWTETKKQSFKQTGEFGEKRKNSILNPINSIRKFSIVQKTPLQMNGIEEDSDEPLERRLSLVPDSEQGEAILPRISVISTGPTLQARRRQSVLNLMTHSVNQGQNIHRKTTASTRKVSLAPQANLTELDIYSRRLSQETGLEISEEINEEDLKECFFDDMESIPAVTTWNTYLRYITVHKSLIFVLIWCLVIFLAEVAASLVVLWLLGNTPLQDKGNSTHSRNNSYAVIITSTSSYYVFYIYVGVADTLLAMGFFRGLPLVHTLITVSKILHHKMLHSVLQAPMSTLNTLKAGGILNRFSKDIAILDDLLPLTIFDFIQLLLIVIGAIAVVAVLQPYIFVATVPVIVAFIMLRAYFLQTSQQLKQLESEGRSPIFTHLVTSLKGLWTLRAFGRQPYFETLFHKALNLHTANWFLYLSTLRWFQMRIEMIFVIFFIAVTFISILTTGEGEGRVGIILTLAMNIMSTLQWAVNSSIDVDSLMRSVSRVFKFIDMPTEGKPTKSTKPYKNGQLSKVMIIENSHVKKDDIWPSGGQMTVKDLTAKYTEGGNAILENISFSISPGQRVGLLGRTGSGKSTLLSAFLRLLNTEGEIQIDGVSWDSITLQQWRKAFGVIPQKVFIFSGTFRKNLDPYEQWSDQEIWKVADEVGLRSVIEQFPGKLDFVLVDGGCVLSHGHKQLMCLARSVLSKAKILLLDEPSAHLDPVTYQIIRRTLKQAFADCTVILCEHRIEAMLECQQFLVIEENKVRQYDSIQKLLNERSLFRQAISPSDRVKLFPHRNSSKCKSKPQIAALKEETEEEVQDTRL
Procedure: (§3) HEK293 cells were transfected with 10–80 ng of plasmid encoding F508del, E92K, P67L, V232D, F508del/G550E, F508del/I539T or wild type CFTR and 20 ng of plasmid encoding YFP (H148Q/I152L/F47L) using jetPEI (Polyplus transfection). Directly after transfection, cells were seeded in black 96-well plates coated with poly-D-lysine at a density of 70,000 cells per well. The next day, cells were treated with corrector(s) for 24 h. After this incubation period, cells were washed twice with DPBS with Ca^2+ and Mg^2+. Subsequently, cells were treated with 10 μM forskolin and the desired concentration of potentiator in a volume of 40 μl and incubated at room temperature for 10 min, a time point optimized in previous experiments resulting in a good window (positive control/negative control > 2) and signal to background ratio. YFP fluorescence was measured using an EnVision plate reader (PerkinElmer). […] The excitation wavelength was 485 nm and the emission wavelength 530 nm. The capacity of potentiators to increase CFTR channel function was expressed as 1-(fluorescence 7 s after NaI addition (F)/fluorescence before NaI addition (F0)). For the different mutants, data was normalized using the formula: normalized response = 100^∗(absolute response – negative control response)/(GLPG2222 response – negative response) as such, GLPG2222 response corresponds to 100. Concentration–response experiments were fitted using a 4 parameter hill function of the form Response = Bottom + (Top - Bottom)/(1 + (EC50/concentration) ˆHillSlope)) to determine EC50 values.
(§4) FIGURE 7 YHA assay using CFTR mutant overexpression in HEK293 cells. Cells were incubated for 24 h with either a dose range of GLPG2737, GLPG2222 or VX809. After washing, cells were triggered with forskolin (50 μM for F508del, E92K, V232D and F508del/I539T, 10 μM for P67L or 1 μM for F508del/G550E) and 0.5 μM potentiator and YFP fluorescence was measured. Efficacy was determined using 10 μM GLPG2222 as positive control and DMSO as negative control in the assay. (A) Table with potency and efficacy obtained for the mutants and compounds tested. (B) Dose–response curves of GLPG2737. (C) Dose–response curves of GLPG2222. (D) Dose–response curves of VX-809. For panels (B–D), E92K mutant is represented in black, F508del mutant in blue, F508del/I539T mutant in green and V232D mutant in gray, all concentrations are tested in duplicate. […] All values containing these digits are best readings, e.g. GLPG2222 P67L EC50 206 (± 98), GLPG2222 E92K EC50 503 (± 109), VX809 F508del EC50 286 (± 35), VX809 P67L % of reference 88 (± 3), GLPG2737 F508del % of reference 138 (± 9). / GLPG2737, EC50 for P67L and E92K is printed as NA; left out because no value is given. / VX809, E92K EC50 error: 17, a digit may be missing.

[4] = molecular target: T3, P67L CFTR (Homo sapiens, UniProt P13569, P67L); experiment: YFP halide assay (YHA), HEK293, P67L; details: for rescue of P67L: YFP halide assay
T3 construct: expressed in transfected cells; host or cells: HEK293
T3 sequence (P13569 whole entry P67L): as the sequence (P13569 whole entry A455E) above, with P67L, E455A counted along it
Procedure: as §3, §4

[5] = molecular target: T4, F508del/I539T CFTR (Homo sapiens, UniProt P13569, DEL508-508/I539T); experiment: YFP halide assay (YHA), HEK293, F508del/I539T; details: 24 h; 50 μM forskolin + 0.5 μM potentiator
T4 construct: expressed in transfected cells; host or cells: HEK293
T4 sequence (P13569 with tags, fused parts or gaps DEL508-508/I539T): as the sequence (P13569 with tags, fused parts or gaps DEL508-508) above, with I538T counted along it
Procedure: as §1, §2

[6] = molecular target: T5, E92K CFTR (Homo sapiens, UniProt P13569, E92K); experiment: YFP halide assay (YHA), HEK293, E92K; details: for rescue of E92K: YFP halide assay
T5 construct: expressed in transfected cells; host or cells: HEK293
T5 sequence (P13569 whole entry E92K): as the sequence (P13569 whole entry A455E) above, with E92K, E455A counted along it
Procedure: as §3, §4

[7] = 24 h, 50 μM forskolin + 0.5 μM potentiator

T1 sequence (P13569 whole entry V232D): as the sequence (P13569 whole entry A455E) above, with V232D, E455A counted along it

Structure (SMILES): O=C(O)c1ccc([C@H]2C[C@@H](NC(=O)C3(c4ccc5c(c4)OC(F)(F)O5)CC3)c3ccc(OC(F)F)cc3O2)cc1 [GLPG2222, 4-[(2 R,4 R)-4-({[1-(2,2-Difluoro-1,3-benzodioxol-5-yl)cyclopropyl]carbonyl}amino)-7-(difluoromethoxy)-3,4-dihydro-2 H -chromen-2-yl]benzoic Acid]
- EC50 [1]: 14 nM
- EC50 [2]: 33 nM
- EC50 [3, 7]: 14 nM
- EC50 ([4]; 24 h, 10 μM forskolin + 0.5 μM potentiator): 206 nM
- rescue of P67L [4]: could be rescued
- EC50 [5]: 4 nM
- EC50 [6, 7]: 503 nM
- rescue of E92K [6]: could be rescued

Structure (SMILES): COC1CCN(C2CCN(c3cc(C(=O)NS(=O)(=O)N(C)C)nc4c3c(C3CCC3)nn4-c3ccc(F)cc3)CC2)CC1 [GLPG2737]
- EC50 [1]: 161 nM
- EC50 [2]: > 2640 nM
- EC50 [3, 7]: 2150 nM
- EC50 ([3]; YFP halide assay, F508del CFTR): 2200 ± 200 nM
- rescue of P67L [4]: absence of rescue
- EC50 [5]: 67 nM
- rescue of E92K [6]: absence of rescue
